From publication PMC3462775 (PLoS ONE, 2012)
≈ marks a conversion by molar mass, not a printed value. Bridge positions count the residues as written; N and C are the ends. Square brackets hold non-standard residues; d marks the D form. Peptide text beside a SMILES is read from it. I, II: the chains in the order shown. βAla = NCCC(=O)O

Columns and labels:
[1] = test system: K.pneumoniae 7086042; assay type: cell-based, Klebsiella pneumoniae
Protocol: (§1) MICs were determined using a standard microdilution assay as recommended by the Clinical and Laboratory Standards Institute. Assays were performed in triplicate using cation-supplemented Mueller-Hinton (MH) broth (Becton Dickinson, Franklin Lakes, NJ, USA) and a bacterial inoculum of 5x10^4 CFU/well, in a final volume of 100 µl. The tested concentrations ranged from 0.1 µM to 24 µM for both peptides. Results were recorded after 18–20 h of incubation at 37°C.

[2] = test system: Enterobacteriaceae; assay: MIC comparison M33-D vs M33-L, Enterobacteriaceae; assay type: cell-based
Protocol: as §1

[3] = test system: P. aeruginosa ATCC 27853 biofilm; assay type: cell-based, Pseudomonas aeruginosa; conditions: ATCC 27853, 2 h
Protocol: (§2) Biofilm formation was performed by adapting the procedure described in [39] using the Calgary Biofilm Device (Innovotech, Innovotech Inc. Edmonton, Canada). Briefly, 96-well plates containing the bacterial inoculum were sealed with lids bearing 96 pegs on which the biofilm could build up. The plates were placed in an orbital incubator at 35°C (for P. aeruginosa and E. coli) or 37°C (for S. aureus) for 20 h under agitation at 125 rpm. Once biofilms formed, the lids were removed from the plates and the pegs were rinsed twice with phosphate buffered saline (PBS) to remove planktonic cells. The peg-lid was then transferred to a 96-well challenge microtiter plate, each well containing 200 µl of a twofold serial dilution of each peptide in LB medium. The challenge plate was incubated at 37°C for 2 hours. Peptide activity on pre-formed biofilm was evaluated by two independent methods: (i) visual observation of bacterial growth and (ii) counting of living bacterial cells after peptide treatment. In the first case, the peg-lid was removed from the challenge plate, rinsed with PBS and used to cover a 96-well recovery microtiter plate, each well containing 200 µl LB medium. […] Colony forming units (CFU) were expressed as percentage with respect to control (peptide-untreated biofilms). […]

[4] = test system: E.coli ATCC 25922; assay: MIC, standard microdilution assay; assay type: cell-based, Escherichia coli; conditions: Reference strain, wild type; CLSI microdilution, cation-supplemented Mueller-Hinton broth, 5x10^4 CFU/well, 18–20 h at 37°C, triplicate
Protocol: as §1

[5] = test system: E. coli ATCC 25922 biofilm; assay type: cell-based, Escherichia coli; conditions: ATCC 25922, 2 h
Protocol: as §2

[6] = Calcein release from liposomes mimicking the membrane of E. coli; conditions: PE/PG 7∶3 liposomes, 50 µM lipid, 10 min at 20°C, peptide 0,5 to 15 µM, fluorescence 490/517 nm, three independent experiments
Text: To investigate interaction of peptides M33-D and M33-L with the bacterial membrane, including possible perturbation, we used vesicles with two lipid compositions to mimic the membrane of S. aureus (CL/PG, 4∶6 mol/mol) and E. coli (PE/PG, 7∶3 mol/mol). […] The peptide-induced effect was dose-dependent in both vesicle lipid compositions. […] No significant differences in the effects induced by M33-D and M33-L were evident, although the D peptide seemed slightly more efficient towards CL/PG liposomes at doses above 8 µM. […] The greater perturbing effect of both forms of M33 on PE/PG vesicles, compared to vesicles containing cardiolipin, was evident.
Calcein-loaded liposomes of two different composition (PE/PG, 7∶3 mol/mol and CL/PG, 4∶6 mol/mol) were prepared as follows. […] Lipid concentration of vesicles was measured by the method of Stewart and the final concentration used for all measurements was 50 µM. Calcein fluorescence in the vesicles is self-quenched and leakage was measured by relief of quenching; the measurements were carried out at 517 nm, exciting at 490 nm, with a Perkin-Elmer LS 50B spectrofluorimeter. […] Leakage was calculated by the equation: [drawing 1] where F and Ft are fluorescence […] addition of detergent and F0 the fluorescence of intact vesicles.

[7] = test system: S. aureus ATCC 25923 biofilm; assay type: cell-based, Staphylococcus aureus; conditions: ATCC 25923, 2 h
Protocol: as §2

Row | SMILES | MIC [1] [µM] | fold lower activity (MIC) than M33-L [2] | Minimum bactericidal concentration on biofilm (MBCb) [3] [µM] | MIC [4] [µM] | Minimum bactericidal concentration on biofilm (MBCb) [5] [µM] | peptide concentration giving total calcein leakage [6] [µM] | Minimum bactericidal concentration on biofilm (MBCb) [7] [µM]
1 | CC[C@@H](C)[C@@H](NC(=O)[C@@H](CCCCN)NC(=O)[C@H](N)CCCCN)C(=O)N[C@H](CCCNC(=N)N)C(=O)N[C@@H](C(=O)N[C@H](CCCNC(=N)N)C(=O)N[C@H](CC(C)C)C(=O)N[C@H](CO)C(=O)N[C@H](C)C(=O)NCCCC[C@H](NC(=O)[C@@H](C)NC(=O)[C@@H](CO)NC(=O)[C@@H](CC(C)C)NC(=O)[C@@H](CCCNC(=N)N)NC(=O)[C@H](NC(=O)[C@@H](CCCNC(=N)N)NC(=O)[C@H](NC(=O)[C@@H](CCCCN)NC(=O)[C@H](N)CCCCN)[C@H](C)CC)C(C)C)C(=O)NCCCC[C@H](NC(=O)[C@H](CCCCNC(=O)[C@@H](C)NC(=O)[C@@H](CO)NC(=O)[C@@H](CC(C)C)NC(=O)[C@@H](CCCNC(=N)N)NC(=O)[C@H](NC(=O)[C@@H](CCCNC(=N)N)NC(=O)[C@H](NC(=O)[C@@H](CCCCN)NC(=O)[C@H](N)CCCCN)[C@H](C)CC)C(C)C)NC(=O)[C@@H](C)NC(=O)[C@@H](CO)NC(=O)[C@@H](CC(C)C)NC(=O)[C@@H](CCCNC(=N)N)NC(=O)[C@H](NC(=O)[C@@H](CCCNC(=N)N)NC(=O)[C@H](NC(=O)[C@@H](CCCCN)NC(=O)[C@H](N)CCCCN)[C@H](C)CC)C(C)C)C(=O)NCCC(=O)O)C(C)C [M33-D] (I: H-[dK][dK][dI][dR][dV][dR][dL][dS][dA]KK[βAla]-OH / II: H-[dK][dK][dI][dR][dV][dR][dL][dS][dA]K / III: H-[dK][dK][dI][dR][dV][dR][dL][dS][dA] / IV: H-[dK][dK][dI][dR][dV][dR][dL][dS][dA]; amide I:10-IV:C, I:11-II:C, II:10-III:C; N-terminus assumed) | 6 (≈ 28.1 µg/mL) | 2–4 fold | 6 (≈ 28.1 µg/mL) | 3 (≈ 14 µg/mL) | 6 (≈ 28.1 µg/mL) | 5 | 1.5 (≈ 7.02 µg/mL)
2 | CC[C@H](C)[C@H](NC(=O)[C@H](CCCCN)NC(=O)[C@@H](N)CCCCN)C(=O)N[C@@H](CCCNC(=N)N)C(=O)N[C@H](C(=O)N[C@@H](CCCNC(=N)N)C(=O)N[C@@H](CC(C)C)C(=O)N[C@@H](CO)C(=O)N[C@@H](C)C(=O)NCCCC[C@H](NC(=O)[C@H](C)NC(=O)[C@H](CO)NC(=O)[C@H](CC(C)C)NC(=O)[C@H](CCCNC(=N)N)NC(=O)[C@@H](NC(=O)[C@H](CCCNC(=N)N)NC(=O)[C@@H](NC(=O)[C@H](CCCCN)NC(=O)[C@@H](N)CCCCN)[C@@H](C)CC)C(C)C)C(=O)NCCCC[C@H](NC(=O)[C@H](CCCCNC(=O)[C@H](C)NC(=O)[C@H](CO)NC(=O)[C@H](CC(C)C)NC(=O)[C@H](CCCNC(=N)N)NC(=O)[C@@H](NC(=O)[C@H](CCCNC(=N)N)NC(=O)[C@@H](NC(=O)[C@H](CCCCN)NC(=O)[C@@H](N)CCCCN)[C@@H](C)CC)C(C)C)NC(=O)[C@H](C)NC(=O)[C@H](CO)NC(=O)[C@H](CC(C)C)NC(=O)[C@H](CCCNC(=N)N)NC(=O)[C@@H](NC(=O)[C@H](CCCNC(=N)N)NC(=O)[C@@H](NC(=O)[C@H](CCCCN)NC(=O)[C@@H](N)CCCCN)[C@@H](C)CC)C(C)C)C(=O)NCCC(=O)O)C(C)C [M33-L] (I: H-KKIRVRLSAKK[βAla]-OH / II: H-KKIRVRLSAK / III: H-KKIRVRLSA / IV: H-KKIRVRLSA; amide I:10-IV:C, I:11-II:C, II:10-III:C; N-terminus assumed) | 3 (≈ 14 µg/mL) |  | 6 (≈ 28.1 µg/mL) | 3 (≈ 14 µg/mL) | 6 (≈ 28.1 µg/mL) | 5 | 12 (≈ 56.2 µg/mL)
